Source: patent US8771682B2, “Methods and compositions for reducing interleukin-4 or interleukin-13 signaling” (Technische Universtität Dresden, priority 2011, dated 2014)
“Also recorded” adds a separate entry of the source.

Experiments:
Assay type in all cases: cell-based, human
[1] = system: type II IL-4 signaling (IL-4/IL-13, Stat6 phosphorylation); test: Stat6 phosphorylation by quantitative immunoblotting in Stat6-transfected HEK293T cells stimulated with IL-4 or IL-13 (type II signaling); conditions: IL-4 3 ng/ml or IL-13 10 ng/ml, Dynasore 320 μmol/l, EHT-1864 50 μmol/l, IPA-3 10 μmol/l, FIG. 9
Source text: It was verified by RT-PCR that HEK293T (human epithelial cell line—ATCC number CRL-11268) cells expressed the endogenous type II IL-4 pathway components IL4-Ra, IL-13Ra1, Jak1, while Stat6 and the type I specific components IL-2Rg, and Jak3 were absent (FIG. 4 and FIG. 5). In HEK cells ectopically expressing human Stat6 under the cytomegalovirus promoter (pcDNA3.1-GS-Stat6, Gene Storm, Invitrogen) and stimulated with either IL-4 or IL-13, phosphorylated Stat6 became detectable by immunoblotting (FIG. 6). Co-transfected RNAi (Sigma Aldrich, #EHU-029151) mediated knockdown of the endogenous IL-13Ra1 subunit verified that this signaling activity was mediated by the type II receptor pathway (FIG. 7). Ectopically Stat6 is functional.
To test whether IL-4 signaling depends on compounds inhibiting Rac/Pak dependent endocytosis, HEK293T cells were transfected with a plasmid encoding human Stat6. Following transfection, cells were grown overnight, treated with inhibitors and/or ligands, lysed, proteins separated electrophoretically under denaturing conditions, and phosphorylation of Stat6 detected by quantitative immunoblotting (Antibodies from Santa Cruz, anti-STAT6 (M-20) #sc-981 and anti-phospho-STAT6 (py641.18, #sc-136019; FIG. 9).
If not indicated otherwise, human recombinant IL-4 (Invitrogen, #PHC0045) was used at 3 ng/ml, and human recombinant IL-13 (Cell Signaling, #8905) was used at 10 ng/ml.
If not indicated otherwise, the dynamin inhibitor Dynasore (Sigma Aldrich, #D7693) was used at 320 μmol/l, the Rac1 inhibitor EHT-1864 (Sigma Aldrich, 41E-1657) at 50 μmol/l, and the PAK inhibitor IPA-3 (Sigma Aldrich, #I-2285) at 10 μmol/l.

[2] = system: endogenous type I signaling (IL-4R, Stat6 phosphorylation) in Jurkat T lymphocytic leukemia cell line; test: pStat6 levels, endogenous type I IL-4 signaling in Jurkat cells; conditions: 10 min pre-incubation with inhibitor plus 30 min ligand and inhibitor, chlorpromazine 2.8 μmol/l
Description: In a second series of experiments the inventors assayed the type I IL-4R. The pStat6 levels were determined under the following conditions: • without ligand stimulation • incubation with IL-4 ligand for 30 min • 10 min pre-incubation with inhibitor plus 30 min incubation with ligand and inhibitor • 40 min pre-incubation with inhibitor followed by removal of the inhibitor and 30 min incubation with ligand (washout).
To assay endogenous type I signaling was analyzed in the Jurkat T lymphocytic leukemia cell line (ATCC TIB 152) showing a specific sensitivity to Rac/Pak dependent endocytosis.

[3] = system: transferrin uptake in HEK cells expressing endogenous transferrin receptor; test: Uptake of fluorescent transferrin (Alexa568-transferrin) by confocal fluorescence microscopy; conditions: 25 μg/ml Alexa568-transferrin, compounds at working concentration (Dynasore 320 μmol/l), FIG. 14
Description: The inventors verified that the used compounds at the working concentration indeed blocked endocytosis by monitoring the uptake of 25 μg/ml fluorescent transferrin (Alexa568-transferrin, Invitrogen) with confocal fluorescence microscopy (FIG. 14). The experiment was performed with (untransformed) HEK-cells expressing endogenous transferrin receptor. As expected, dynamin dependent endocytosis could be blocked with Dynasore. […] As expected, inhibiting Rac1 and Pak 1/2 dependent actin polymerization by EHT-1864 and IPA-3 had no effect on transferrin uptake (FIG. 14).

[4] = system: loading of the signaling endosome with IL4-A647 in HEK293T transfected with IL-4Ra, IL-2Rg-eGFP and JAK3; test: Translocation of labeled IL-4 (IL4-A647) into signaling endosomes, co-localization with IL-2Rg-eGFP
Description: The inventors created a fluorescently labeled IL-4 ligand (Alexa647—succinimidylester, Invitrogen)—further referred to as IL4-A647.
HEK293T were transfected with IL-4Ra, IL-2Rg-eGFP, and JAK3 as described above and cultured under standard culture conditions. The cells were incubated at 4° C. with the inhibitor (optional) and stained with 50 nmol/I IL4-A647 and washed with medium (DMEM without phenole red). The temperature release from 0° C. to 20° C. was defined as a reference point for the onset of endocytosis. Thenceforth, co-localization of eGFP with A647 was measured.
Applying the fluorescent IL-4-A647 under conditions in which endocytosis is suppressed (4° C.) allows to observe the kinetics of the translocation into the signaling endosomes. The endocytosis starts with a temperature release. FIG. 15 illustrates that in an initial state (timepoint 0 min, IL4-A647 channel) the plasma membrane of the IL-4Ra chain expressing cells is homogeneously stained. However, after several minutes, the A647 fluorescence a punctuated pattern appears in the IL4-A647 channel showing a high degree of colocalization to the GFP channel (FIG. 16). Association of the stained endosomes with the actin cortex and the plasma membrane is apparent in central confocal cross-sections through a central part of the cell (FIG. 17). […] Such a readout could therefore be used to detect IL-4 translocation inhibitors.

Structure (SMILES) | Stat6 phosphorylation level [1] | IL-4 signaling (pStat6 level) [2] | transferrin uptake [3] | transport of the Alexa647-labeled ligand ([4]; 50 μmol/l EHT-1864, bottom membrane, 21 min after temperature release, FIG. 18) | uptake of the labeled ligand ([4]; 50 μmol/l EHT-1864, central cross-section, 22 min after temperature release, FIG. 19) | loading of the signaling endosome with IL4-A647 ([4]; pre-incubation with 50 μmol/l EHT-1864, for up to 20 minutes after temperature release, FIG. 18) | IL-4 signaling (pStat6 level) ([2]; listed as Chlorpromazine) | transferrin uptake ([3]; listed as Chlorpromazine)
O=c1cc(CN2CCOCC2)occ1OCCCCCSc1ccnc2cc(C(F)(F)F)ccc12 (racemic) [EHT-1864, 5-(5-(7-(Trifluoromethyl)quinolin-4-ylthio)pentyloxy)-2-(morpholinomethyl)-4H-pyran-4-one] | reduced the Stat6 phosphorylation level | significantly reduced | no effect | reduced | reduced uptake | reduced significantly |  | 
O=C(N/N=C/c1ccc(O)c(O)c1)c1cc2ccccc2cc1O [Dynasore] | reduced the Stat6 phosphorylation level; also recorded: prevented Stat6 phosphorylation | significantly reduced | blocked transferrin endocytosis; also recorded: inhibit transferrin uptake |  |  |  |  | 
Oc1ccc2ccccc2c1SSc1c(O)ccc2ccccc12 [IPA-3, 1,1′-Dithiodi-2-naphthtol] | reduced the Stat6 phosphorylation level | significantly reduced | no effect |  |  |  |  | 
CN(C)CCCN1c2ccccc2Sc2ccc(Cl)cc21 [chlorpromazine] |  | no effect; also recorded: not IL-4 signaling | blocked transferrin uptake |  |  |  | no inhibitory effect | inhibit transferrin uptake
